Reference: patent EP0805678B1, “SURFACE-MODIFIED NANOPARTICLES AND METHOD OF MAKING AND USING SAME” (THE BOARD OF REGENTS acting for and on behalf of THE …, priority 1995, dated 1996)

Legend:
[1] = tested on: coronary artery; test: in vivo retention of nanoparticles in porcine coronary artery; design: species or system pigs; settings: after local delivery of U86-loaded nanoparticles; about 45 µg nanoparticles per 1 cm LAD
Experimental: In addition to the in vivo studies with rats, the nanoparticles were tested on pigs, weighing between about 30-40 lbs. In each subject pig, the elastic lamina of the coronary artery was ruptured by over inflation of a balloon tip catheter. A nanoparticle suspension (2.5 to 10 mg/ml in normal saline) was infused at the location of the injury by a Wolinksy (28 or 96 hole) or D-3 balloon catheter (Sci-Med, Minneapolis, MN) at 1-3 atmosphere pressure over 1 to 5 minutes. After 2-6 hours, the coronary arteries were harvested and quantitated for drug levels to calculate nanoparticle retention. U86 loaded-PLGA nanoparticles (15% w/w) with 5% DMAB surface modification and a particle size between 100-149 nm were suspended in normal saline at a concentration 15 or 30 mg/ml. The nanoparticles (NP) were administered to pigs which were sacrificed at 30 minutes or after one hour.

[2] = tested on: ADP-induced platelet aggregation; test: in vitro platelet aggregometry; format: cell-based, pig; settings: platelet rich plasma at 37° C, effects monitored after 1 minute
Experimental: Using standard in vitro platelet aggregometry techniques, a dose-response curve was first developed with free ciprostene to determined its inhibitory potency against standard ADP-induced platelet aggregation. […] Concentrations of PLGA nanoparticles ranging from 0.3 to 30 µg/ml (actual ciprostene concentration of 0.06 to 6 µg/ml due to 20% drug loading) were added to platelet rich plasma samples heated to 37° C. The platelet inhibitory effects were monitored after 1 minute. The IC50 for the polymer-incorporated ciprostene was 0.59 µg/ml. Non-drug containing PLGA nanoparticles, as controls, had no obvious effects on the aggregation profile of pig platelets to the agonist ADP.

| SMILES | net U86 in 1 cm of treated artery [1] | IC50 [2] |
| --- | --- | --- |
| O=c1cc(N2CCOCC2)oc2c(OCc3cccnc3)cccc12 [Sample U86, U-86983] | about 7 µg |  |
| CCCCC[C@H](O)/C=C/[C@H]1[C@H](O)C[C@]2(C)C/C(=C\CCCC(=O)O)C[C@H]12 [free ciprostene, ciprostene] |  | roughly 0.28 µg/ml |
